# Assays:
# MDA-MB-453 cells = assay: Total cellular acetyl-CoA level; type: cell-based; settings: 24 h
# Protocol: Cellular glucose-to-lipid conversion was measured as described. Briefly, cells were pretreated with inhibitors for 2 h, incubated for 2 h in medium containing 2 μCi/mL D-[1-14C] glucose (PerkinElmer, NEC043X001MC). Total lipids were extracted twice with 300 μL hexane:isopropanol (3:2; vol:vol). Cell debris was carefully removed by centrifugation at 14,000 rpm for 5 min using a microcentrifuge. Radioactive lipids were dried, redissolved with 100 μL of chloroform and determined by liquid scintillation counting. A duplicate assay plate without radioactive glucose label was used to count the number of cells per treatment. Glucose to total lipid conversion rate is the radioactive counts from the extracted lipid normalized by the number of cells per hour of ^14C-glucose incubation. For acetyl-CoA assay, cells grown in 96-well plates were washed and lysed in 40 μL/well using lysis buffer. Cell lysates were transferred to V-bottom plates, cleared by centrifugation. 30 μL of the cleared cell lysates were subjected to acetyl-CoA measurement using an acetyl-CoA assay kit (Sigma, MAK-039) following manufacturer's assay manual. Duplicate assay plates were used to count the number of cells per treatment for normalization in determining cellular acetyl-CoA levels.
# [1] = system: P-S6 and P-AKT in MDA-MB-453 tumors; assay: mTOR biomarkers in tumor tissue (immunoblot); type: in vivo, mice
# Protocol: Animal studies were performed under protocols approved by Institutional Animal Care and Use Committee (IACUC) of Fudan University. Balbc female nude mice bearing MDA-MB-453, HCC1806 or 786-O tumors were staged at initial tumor volume of 150-200 mm^3 and randomized into treatment groups (n=/>8). […] Lapatinib and Sunitinib were formulated in 0.5% hydroxypropyl methyl cellulose (HPMC)-0.2% tween-80 as homogeneous suspension. All test agents were prepared twice weekly. Mice were dosed orally once daily (qd). Tumor growth inhibition rate (TGI) was calculated: TGI=[1-(Vt-Vi)/(Vc-Vi)]×100, where Vt: tumor volume of drug treated group, Vc: tumor volume of vehicle control group, Vi: initial tumor volume at staging. For biomarker studies, frozen tumors were made lysates and immunoblotted as previously described. For detecting apoptosis, tumors were excised, fixed in 4% formalin for 24 h and embedded in paraffin. […] The slides were blocked in Tris buffered saline with 5% BSA-0.3 M glycine and reacted with anti-CPT1A (Proteintech #15184-1-AP) or anti-P-ACL S455 (Abcam #59297) and detected with peroxidase-conjugated secondary antibody (Jackson # 111-035-003). […] Staining levels were analyzed on the basis of mean optical density quantified by software image pro plus 6.0.
structure (smiles),measurement,setting,value
CNC(=O)c1cccc(-c2ccc3c(N4C5CCC4COC5)nc(N4CCOC[C@@H]4C)nc3n2)c1 [MTI-31],reduction in acetyl-CoA,MDA-MB-453 cells,67%
same,P-S6 and P-AKT levels in tumor tissue,[1]; 5 mg/kg oral qd,significantly reduced
same,P-S6 and P-AKT levels in tumor tissue,[1]; 10 mg/kg oral qd,nearly complete suppression

# Source: paper PMC5341858, “Molecular regulation of apoptotic machinery and lipid metabolism by mTORC1/mTORC2 dual inhibitors in preclinical models of HER2+/PIK3CAmut breast cancer” (Oncotarget, 2016)
